Results on 28 molecules are retold here after US20230174484A1, “ANTAGONISTS OF GPR39 PROTEIN” (Oregon Health & Science University, priority 2020, published 2023).

Counter-ions that a name gives are not always drawn.

The first assay addresses T1, human GPR39 receptor (Homo sapiens, UniProt O43194).
T1 construct: PC3 Cells, Expressing the Endogenous Human GPR39 Receptor; endogenous in cells; host or cells: PC3 (human prostate adenocarcinoma) cells
T1 sequence (O43194 1-453): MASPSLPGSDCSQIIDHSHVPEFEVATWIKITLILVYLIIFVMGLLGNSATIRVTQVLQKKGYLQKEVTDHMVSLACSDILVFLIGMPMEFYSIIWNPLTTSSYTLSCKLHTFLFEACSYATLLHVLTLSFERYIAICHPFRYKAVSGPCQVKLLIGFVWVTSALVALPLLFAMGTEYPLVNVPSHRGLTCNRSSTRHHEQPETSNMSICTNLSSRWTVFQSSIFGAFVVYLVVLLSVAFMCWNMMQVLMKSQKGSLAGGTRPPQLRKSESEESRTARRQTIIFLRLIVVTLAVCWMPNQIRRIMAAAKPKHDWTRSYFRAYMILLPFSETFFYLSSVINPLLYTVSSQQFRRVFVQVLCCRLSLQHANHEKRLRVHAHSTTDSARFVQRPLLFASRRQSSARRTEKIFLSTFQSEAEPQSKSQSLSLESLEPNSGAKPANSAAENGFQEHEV
The assay is described as follows: Measurement of intracellular calcium response in PC3 cells (FLIPR), antagonism of the C3 agonist response. The class given is cell-based. The settings on record: functional pKi (modified Cheng-Prusoff), inhibition of the C3 (TC-G 1008) response at EC90, 30 μM ZnCl2. The procedure, abridged: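 Potency was reported as fpKi, converted by modified Cheng-Prusoff from four-parameter IC50 fits against an EC90 C3 agonist challenge. Calcium-6 FLIPR readings used PC3 cells naturally expressing human GPR39, in pH 7.4 HEPES buffer containing 30 μM final ZnCl2. Score bands: +/± <5.2, + 5.2–5.9, ++ 6.0–6.5, +++ 6.6–7.2, ++++ ≥7.3.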
(Calcium assays in cells follow changes in intracellular calcium, usually with a dye or a luminescent sensor.)
Consider “(2R or 2S) N-[6-(3,3-difluoropyrrolidin-1-yl)-5-(4-methyl-2-phenylpiperazine-1-carbonyl)pyridin-2-yl]cyclopropanecarboxamide [Example 148b]”, for which the fpKi activity result is “+ (An fpKi ranging from 5.2 to 5.9 is reported as “+”)”.

The assay is the same for the next values; noted with them: functional pKi (modified Cheng-Prusoff), inhibition of the C3 (TC-G 1008) response at EC90, 30 μM ZnCl2, read-out: fpKi activity.
In the case of `O=C(Nc1ccc(C(=O)N2CCN(Cc3ccccc3Cl)CC2)c(N2CCCCCC2)c1)C1CC1` [Example 31, N-(3-(azepan-1-yl)-4-(4-(2-chlorobenzyl)piperazine-1-carbonyl)phenyl) Cyclopropanecarboxamide], the Ki fell in the range of 316 to 1000 nM.
Same read-out and setting: with `O=C(Nc1ccc(C(=O)N2CCS(=O)(=O)CC2)c(N2CC3CC(C3)C2)c1)C1CC1` [Example 195, N-[3-(3-azabicyclo[3.1.1]heptan-3-yl)-4-(1,1-dioxo-1,4-thiazinane-4-carbonyl)phenyl]cyclopropanecarboxamide] the figure was 63.1 to 251 nM; with `O=C(NCc1ccccn1)c1ccc(NC(=O)C2CC2)cc1N1CCCCCC1` [Example 42, 2-(azepan-1-yl)-4-cyclopropaneamido-N-[(pyridin-2-yl)methyl]benzamide], 316 to 1000 nM; with `CC1CN(C(=O)c2ccc(NC(=O)C3CC3)cc2N2CCCCCC2)CCN1C` (stereo not shown) [Example 55, N-[3-(azepan-1-yl)-4-(3,4-dimethylpiperazine-1-carbonyl)phenyl]cyclopropanecarboxamide], 316 to 1000 nM.
Still for that read-out and setting: with `Cc1nnc(-c2ccc(C(=O)N3CCN(C)CC3c3ccccc3)c(N3CCC(C(F)(F)F)C3)c2)[nH]1` (single isomer, unassigned) [Example 177a, (2S, 3R) or (2R, 3S) or (2R, 3R) or (2S, 3S) (4-methyl-2-phenylpiperazin-1-yl)-[4-(5-methyl-4H-1,2,4-triazol-3-yl)-2-[3-(trifluoromethyl)pyrrolidin-1-yl]phenyl]methanone] the figure was 63.1 to 251 nM; with `O=C(Nc1ccc(C(=O)N2CCS(=O)(=O)CC2)c(N2CCC3(CCC3)C2)n1)C1CC1` [Example 143, N-[6-(6-azaspiro[3.4]octan-6-yl)-5-(1,1-dioxo-1,4-thiazinane-4-carbonyl)pyridin-2-yl]cyclopropanecarboxamide], at most 50.1 nM; with `O=C(Nc1ccc(C(=O)N2CCN(c3ccccc3)CC2)c(N2CCCCCC2)c1)C1CC1` [Example 52, N-(3-(azepan-1-yl)-4-(4-phenylpiperazine-1-carbonyl)phenyl)cyclopropanecarboxamide], 63.1 to 251 nM.
The same measure, in the same setting: the result for `CN1CCN(C(=O)c2ccc(NC(=O)C3CC3)cc2N2CCCCCC2)C(c2cccs2)C1` (single isomer, unassigned) [Example 69b, N-(3-(azepan-1-yl)-4-(4-methyl-2-(thiophen-2-yl)piperazine-1-carbonyl)phenyl) cyclopropane carboxamide] reads at most 50.1 nM; that for `CCCN1CCN(C(=O)c2ccc(NC(=O)C3CC3)cc2N2CCC3(CCC3)C2)CC1` [Example 1, N-(4-(4-propylpiperazine-1-carbonyl)-3-(6-azaspiro[3.4]octan-6-yl)phenyl)cyclopropanecarboxamide], at most 50.1 nM.
Consider `Cc1nnc(-c2ccc(C(=O)N3CCC(F)(F)CC3)c(-n3ccc(C4CC4)n3)c2)[nH]1` [Example 209, [2-(3-cyclopropylpyrazol-1-yl)-4-(5-methyl-4H-1,2,4-triazol-3-yl)phenyl]-(4,4-difluoropiperidin-1-yl)methanone], for which the Ki was at most 50.1 nM.
Still for that read-out and setting: with `CN1CCN(C(=O)c2ccc(NC(=O)C3CC3)cc2N2CCCC2)C(c2cccc(F)c2)C1` (single isomer, unassigned) [Example 88b, N-[4-[2-(3-fluorophenyl)-4-methylpiperazine-1-carbonyl]-3-pyrrolidin-1-ylphenyl]cyclopropanecarboxamide] the figure was 1260 to 6310 nM.
As to `Cc1nnc(-c2ccc(C(=O)N3CCN(C)CC3c3ccccc3)c(N3CCC(C(F)(F)F)C3)c2)[nH]1` (single isomer, unassigned) [Example 177d, (2S, 3R) or (2R, 3S) or (2R, 3R) or (2S, 3S) (4-methyl-2-phenylpiperazin-1-yl)-[4-(5-methyl-4H-1,2,4-triazol-3-yl)-2-[3-(trifluoromethyl)pyrrolidin-1-yl]phenyl]methanone], the Ki was 316 to 1000 nM.
Still for that read-out and setting: the result for `CN(C)CCSc1nnc(-c2ccc(NC(=O)C3CC3)cc2N2CCCCCC2)n1C` [Example 111, N-[3-(azepan-1-yl)-4-[5-[2-(dimethylamino)ethylsulfanyl]-4-methyl-1,2,4-triazol-3-yl]phenyl]Cyclopropanecarboxamide] reads 1260 to 6310 nM; that for `Cc1nnc(-c2ccc(C(=O)N3CCN(C)CC3c3ccccc3)c(N3CCC(C(F)(F)F)C3)c2)[nH]1` (single isomer, unassigned) [Example 177c, (2S, 3R) or (2R, 3S) or (2R, 3R) or (2S, 3S) (4-methyl-2-phenylpiperazin-1-yl)-[4-(5-methyl-4H-1,2,4-triazol-3-yl)-2-[3-(trifluoromethyl)pyrrolidin-1-yl]phenyl]methanone], at most 50.1 nM.
Same read-out and setting: with `CCCN1CCN(C(=O)c2ccc(NC(=O)C3CC3)cc2N2C[C@@H](C)C[C@H](C)C2)CC1` (relative stereo) [Example 14b] the figure was 63.1 to 251 nM; with `Cc1nnc(-c2ccc(C(=O)N3CCN(C)CC3c3ccccc3)c(N3CCC(C(F)(F)F)C3)c2)[nH]1` (single isomer, unassigned) [Example 177b, (2S, 3R) or (2R, 3S) or (2R, 3R) or (2S, 3S) (4-methyl-2-phenylpiperazin-1-yl)-[4-(5-methyl-4H-1,2,4-triazol-3-yl)-2-[3-(trifluoromethyl)pyrrolidin-1-yl]phenyl]methanone], 316 to 1000 nM; with `CN1CCN(C(=O)c2ccc(NC(=O)C3CC3)nc2N2CC3CC3C2)C(c2ccccc2)C1` (racemic) [Example 145], 63.1 to 251 nM.
The same measure, in the same setting: with `CN1CCN(C(=O)c2ccc(NC(=O)C3CC3)cc2N2CCCC2)C(c2ccccc2)C1` (single isomer, unassigned) [Example 62d, 2R or 2S N-[4-(4-methyl-2-phenylpiperazine-1-carbonyl)-3-pyrrolidin-1-ylphenyl]cyclopropanecarboxamide hydrochloride] the figure was 63.1 to 251 nM; with `CN1CCN(C(=O)c2ccc(NC(=O)C3CC3)cc2N2CCCCCC2)C(Cc2ccccc2)C1` (stereo not shown) [Example 76, N-[3-(azepan-1-yl)-4-(2-benzyl-4-methylpiperazine-1-carbonyl)phenyl]Cyclopropanecarboxamide], 63.1 to 251 nM; with `Cc1noc(-c2ccc(C(=O)N3CCC(C(F)(F)F)CC3)c(N3CCCC3)c2)n1` [Example 152, [4-(3-methyl-1,2,4-oxadiazol-5-yl)-2-pyrrolidin-1-ylphenyl]-[4-(trifluoromethyl)piperidin-1-yl]methanone], 316 to 1000 nM.
Consider `CCCN1CCn2c(cnc2-c2ccc(NC(=O)C3CC3)cc2N2CCCCCC2)C1` [Example 105, N-[3-(azepan-1-yl)-4-(7-propyl-6,8-dihydro-5H-imidazo[1,5-a]pyrazin-3-yl)phenyl]cyclopropanecarboxamide], for which the Ki lay within 63.1 to 251 nM.
On the same count and under the same terms, the result for `CC1CC(C)CN(c2cc(NC(=O)C3CC3)ccc2C(=O)N2CCN(C)CC2c2ccccc2)C1` (single isomer, unassigned) [Example 68d, Anti N-[3-[3,5-dimethylpiperidin-1-yl]-4-(4-methyl-2-phenylpiperazine-1-carbonyl)phenyl]cyclopropanecarboxamide] reads 63.1 to 251 nM; that for `CN1CCN(C(=O)c2ccc(NC(=O)C3CC3)cc2N2CCCC2)C(c2cccc(F)c2)C1` (single isomer, unassigned) [Example 88a, N-[4-[2-(3-fluorophenyl)-4-methylpiperazine-1-carbonyl]-3-pyrrolidin-1-ylphenyl]cyclopropanecarboxamide], 63.1 to 251 nM.
`CC1CN(c2cc(NC(=O)C3CC3)ccc2C(=O)N2CCS(=O)(=O)CC2)CC(C)O1` (racemic) [Example 188, N-[3-[(anti)-2,6-dimethylmorpholin-4-yl]-4-(1,1-dioxo-1,4-thiazinane-4-carbonyl)phenyl]cyclopropanecarboxamide]: the Ki lay in the range of 1260 to 6310 nM.
On the same count and under the same terms, with `CN1CCN(C(=O)c2ccc(NC(=O)C3CC3)cc2N2CCC(C(F)(F)F)C2)C(c2ccccc2)C1` (single isomer, unassigned) [Example 199e, (2S, 3R) or (2R, 3S) or (2R, 3R) or (2S, 3S) N-[4-(4-methyl-2-phenylpiperazine-1-carbonyl)-3-[3-(trifluoromethyl)pyrrolidin-1-yl]phenyl]cyclopropanecarboxamide hydrochloride] the figure was at most 50.1 nM; with `CCCN1CCN(C(=O)c2ccc(-c3nnc(C4CC4)[nH]3)cc2N2CCCCCC2)CC1` [Example 118, [2-(azepan-1-yl)-4-(5-cyclopropyl-4H-1,2,4-triazol-3-yl)phenyl]-(4-propylpiperazin-1-yl)methanone], 316 to 1000 nM; with `CN1CCN(C(=O)c2ccc(NC(=O)C3CC3)cc2N2CCCC2)C(c2ccccc2Cl)C1` (racemic) [Example 170c, N-[4-[2-(2-chlorophenyl)-4-methylpiperazine-1-carbonyl]-3-pyrrolidin-1-ylphenyl]cyclopropanecarboxamide], at most 50.1 nM.
